Measurements as given in US20230365589A1, “NOVEL AMINE DERIVATIVES” (Sumitomo Pharma Co., Ltd., priority 2020, published 2023).
Read-outs that look alike come from different tables or passages of the source.

Tests used:
Assay type in all cases: biochemical
[1] = target: T1, DYRK3 (Homo sapiens, UniProt O43781); assay: Inhibition test on activity of DYRK family, mobility shift assay (MSA): DYRK3
T1 construct: purchased Carna Biosciences, Inc. 04-133
T1 sequence (O43781 1-568 isoform O43781-2): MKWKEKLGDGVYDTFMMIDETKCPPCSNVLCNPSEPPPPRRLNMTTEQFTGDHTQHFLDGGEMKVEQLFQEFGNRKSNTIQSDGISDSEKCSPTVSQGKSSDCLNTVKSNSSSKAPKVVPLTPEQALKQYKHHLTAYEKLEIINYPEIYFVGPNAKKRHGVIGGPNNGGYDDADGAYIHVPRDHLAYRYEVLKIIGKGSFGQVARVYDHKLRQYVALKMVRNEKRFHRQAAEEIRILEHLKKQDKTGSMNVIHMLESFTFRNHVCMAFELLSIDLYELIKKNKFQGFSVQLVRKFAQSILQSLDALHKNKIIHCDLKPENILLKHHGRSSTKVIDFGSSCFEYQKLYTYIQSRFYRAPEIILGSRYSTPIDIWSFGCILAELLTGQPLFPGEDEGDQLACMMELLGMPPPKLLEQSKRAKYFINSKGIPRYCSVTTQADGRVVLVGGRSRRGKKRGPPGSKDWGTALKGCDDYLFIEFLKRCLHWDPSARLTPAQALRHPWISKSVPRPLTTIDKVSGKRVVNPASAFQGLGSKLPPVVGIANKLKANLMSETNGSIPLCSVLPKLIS
Protocol: (§1) [Inhibition Test on Activity of DYRK Family (DYRK1A, DYRK1B, DYRK2, and DYRK3)]
(§2) The kinase activity was measured by mobility shift assay (MSA) method using QuickScout Screening Assist™ MSA (commercially available kit manufactured by Carna Biosciences, Inc.). The substrate of the kinase reaction used was an FITC-labeled DYRKtide peptide included in the kit. An assay buffer [20 mM HEPES, 0.01% Triton X-100™, 2 mM dithiothreitol, pH 7.5]was used to create a substrate mixture solution with a substrate (4 μM), MgCl2(20 mM), and ATP (DYRK1A: 100 μM; DYRK1B: 200 μM; DYRK2: 40 μM; and DYRK3: 20 μM). In addition, kinases (DYRK1A: manufactured by Carna Biosciences, Inc., Cat. No. 04-130; DYRK1B: manufactured by Carna Biosciences, Inc., Cat. No. 04-131; DYRK2; manufactured by Carna Biosciences, Inc., Cat. No. 04-132; and DYRK3; manufactured by Carna Biosciences, Inc., Cat. No. 04-133) were diluted with the assay buffer to prepare enzyme solutions (DYRK1A: 0.2 ng/μL; DYRK1B: 0.08 ng/μL; DYRK2: 0.04 ng/μL; and DYRK3: 0.25 ng/μL). The 10 mM solution of the test compound in DMSO was further diluted with DMSO to 10 levels of the concentration (0.00003 mM, 0.0001 mM, 0.0003 mM, 0.001 mM, 0.003 mM, 0.01 mM, 0.03 mM, 0.1 mM, 0.3 mM, and 1 mM), each of which was subjected to 25-fold dilution with the assay buffer to obtain a drug solution (4% DMSO solution). 5 μL of the drug solution or a control solution (4% DMSO-assay buffer), 5 μL of the substrate mixture solution, and 10 μL of the enzyme solution were mixed in the wells of a polypropylene 384-well plate and allowed to react at room temperature for 1 hour, and then the reaction was quenched by adding 60 μL of the termination buffer included in the kit. Subsequently, the quantities of the substrates (S) and the phosphorylated substrate (P) in the reaction solution were measured using LabChip EZ Reader II system (manufactured by Caliper Life Sciences) according to the protocol of the assay kit.
(§3) The heights of the peaks of the “substrate” and the “phosphorylated substrate” were expressed as S and P, respectively, and a blank containing the assay buffer instead of the enzyme solution was also measured.
(§4) The inhibition rate (%) of the test compound was calculated according to the following equation:
(§5) Inhibition rate (%)=(1−(C−A)/(B−A))×100 • wherein, A, B, and C represent P/(P+S) of the blank well, P/(P+S) of the control solution well, and P/(P+S) of the compound-containing well, respectively.
(§6) The IC50 value was calculated via a regression analysis of the inhibition rate and the test compound concentration (logarithmic value).
(§7) The inhibiting activities of representative compounds of the present invention are shown against DYRK1A, DYRK1B, DYRK2, and DYRK3 in Tables.

[2] = target: T2, DYRK2 (Homo sapiens, UniProt Q92630); assay: Inhibition test on activity of DYRK family, mobility shift assay (MSA): DYRK2
T2 construct: purchased Carna Biosciences, Inc. 04-132
T2 sequence (Q92630 74-601 limits assumed): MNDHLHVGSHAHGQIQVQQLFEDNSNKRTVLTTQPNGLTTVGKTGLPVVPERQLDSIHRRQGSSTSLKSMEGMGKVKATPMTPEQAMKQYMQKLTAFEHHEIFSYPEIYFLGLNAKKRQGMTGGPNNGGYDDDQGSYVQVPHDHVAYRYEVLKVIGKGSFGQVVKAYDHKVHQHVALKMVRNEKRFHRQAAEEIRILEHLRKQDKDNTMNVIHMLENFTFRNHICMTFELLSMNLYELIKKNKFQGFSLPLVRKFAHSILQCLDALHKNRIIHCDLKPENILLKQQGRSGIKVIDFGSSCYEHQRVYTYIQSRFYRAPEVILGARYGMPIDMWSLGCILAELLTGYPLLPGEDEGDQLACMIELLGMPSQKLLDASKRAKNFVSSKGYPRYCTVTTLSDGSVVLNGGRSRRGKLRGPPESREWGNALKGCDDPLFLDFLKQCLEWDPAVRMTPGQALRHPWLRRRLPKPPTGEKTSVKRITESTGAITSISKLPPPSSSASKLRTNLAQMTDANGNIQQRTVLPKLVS
Protocol: as §1, §2, §3, §4, §5, §6, §7

[3] = target: T3, DYRK1A (Homo sapiens, UniProt Q13627); assay: Inhibition test on activity of DYRK family, mobility shift assay (MSA): DYRK1A
T3 construct: purchased Carna Biosciences, Inc. 04-130
Protocol: as §1, §2, §3, §4, §5, §6

[4] = read-out: Inhibitory activity DYRK 3
[5] = read-out: Inhibitory activity DYRK 2
[6] = read-out: Inhibitory activity DYRK 1A
[7] = MSA, FITC-labeled DYRKtide peptide, ATP 20 μM, read-out: Inhibitory activity DYRK 3 (IC50 class)
[8] = MSA, FITC-labeled DYRKtide peptide, ATP 40 μM, read-out: Inhibitory activity DYRK 2 (IC50 class)
[9] = MSA, FITC-labeled DYRKtide peptide, ATP 100 μM, read-out: Inhibitory activity DYRK 1A (IC50 class)

Row | IC50 [1, 4] | IC50 [2, 5] | IC50 [3, 6] | IC50 [1, 7] | IC50 [2, 8] | IC50 [3, 9] | SMILES
1 | ≥ 1 µM | ≥ 1 µM | < 0.01 µM |  |  |  | O=C1N[C@H]2CCN(C3CC3)C[C@H]2N1c1nc2c3c(ccc2s1)OCC3 (single isomer, unassigned) [Example 110]
2 | 0.1 to 1 µM | 0.1 to 1 µM | < 0.01 µM |  |  |  | C#CCN1CC[C@@H]2NC(=O)N(c3nc4c5c(ccc4s3)OCC5)[C@@H]2C1 (racemic) [Example 99, rac-(3aR,7aS)-3-(7,8-dihydrofuro[3,2-e][1,3]benzothiazol-2-yl)-5-(2-propyn-1-yl)octahydro-2H-imidazo[4,5-c]pyridin-2-one]
3 |  |  |  | 0.1 to 1 µM | ≥ 1 µM | 0.1 to 1 µM | O=C1N[C@H]2CCCNC[C@H]2N1c1nc2c3c(ccc2s1)OCO3 [Example 55]
4 |  |  |  | ≥ 1 µM | ≥ 1 µM | ≥ 1 µM | O=C1N[C@@H]2CCN(C3CC3)C[C@@H]2N1c1nc2c3c(ccc2s1)OCO3 (single isomer, unassigned) [Example 35]
5 | 0.1 to 1 µM | 0.1 to 1 µM | < 0.01 µM |  |  |  | CC1(C)C[C@@H]2[C@H](CO1)NC(=O)N2c1nc2c3c(ccc2s1)OCC3 [Example 124, (3aR,7aR)-1-(7,8-dihydrofuro[3,2-e][1,3]benzothiazol-2-yl)-6,6-dimethylhexahydropyrano[3,4-d]imidazol-2(3H)-one]
6 |  |  |  | ≥ 1 µM | ≥ 1 µM | 0.1 to 1 µM | O=C1N[C@H]2CN(C3CC3)CC[C@H]2N1c1nc2c3c(ccc2s1)OCCO3 [Example 88]
7 | ≥ 1 µM | ≥ 1 µM | 0.1 to 1 µM |  |  |  | C[C@H]1C[C@H]2NC(=O)N(c3nc4c5c(ccc4s3)OCC5)C2CN1C (stereo partly drawn) [Example 92]
8 |  |  |  | ≥ 1 µM | ≥ 1 µM | 0.1 to 1 µM | O=C1N[C@@H]2CCN(C3CC3)C[C@@H]2N1c1nc2c3c(ccc2s1)OCCO3 (single isomer, unassigned) [Example 33]
9 |  |  |  | ≥ 1 µM | ≥ 1 µM | 0.01 to 0.1 µM | O=C1NC2CCN(CCO)CC2N1c1nc2c3c(ccc2s1)OCC3 (stereo not drawn) [Example 13]
10 |  |  |  | 0.01 to 0.1 µM | 0.1 to 1 µM | 0.01 to 0.1 µM | C[C@H]1[C@H]2NC(=O)N(c3nc4c5c(ccc4s3)OCC5)C2CCN1C (stereo partly drawn) [Example 91]
11 | ≥ 1 µM | ≥ 1 µM | 0.1 to 1 µM |  |  |  | C[C@H]1[C@@H]2[C@H](CCN1C)NC(=O)N2c1nc2c3c(ccc2s1)OCC3 [Example 94]
12 |  |  |  | ≥ 1 µM | ≥ 1 µM | 0.01 to 0.1 µM | CN1CC[C@@H]2NC(=O)N(c3nc4c5c(ccc4s3)OCO5)[C@@H]2C1 (racemic) [Example 79, rac-(3aR,7aS)-3-(2H-[1,3]dioxolo[4,5-e][1,3]benzothiazol-7-yl)-5-methyloctahydro-2H-imidazo[4,5-c]pyridin-2-one]
13 |  |  |  | 0.1 to 1 µM | ≥ 1 µM | 0.1 to 1 µM | CN1CC[C@@H]2NC(=O)N(c3nc4c5c(ccc4s3)OCC5)[C@@H]2CC1 [Example 67]
14 | ≥ 1 µM | ≥ 1 µM | ≥ 1 µM |  |  |  | CC1(C)C[C@H]2[C@@H](CO1)NC(=O)N2c1nc2c3c(ccc2s1)OCC3 [Example 123]

Continued, compound first:

Row | SMILES | IC50 [1, 4] | IC50 [2, 5] | IC50 [3, 6] | IC50 [1, 7] | IC50 [2, 8] | IC50 [3, 9]
15 | O=C1N[C@@H]2[C@@H](CCNC23CC3)N1c1nc2c3c(ccc2s1)OCC3 [Example 46] |  |  |  | 0.1 to 1 µM | 0.1 to 1 µM | 0.01 to 0.1 µM
16 | O=C1N[C@H]2COCC[C@H]2N1c1nc2c3c(ccc2s1)OCO3 [Example 21, (3aR,7aR)-1-(2H-[1,3]dioxolo[4,5-e][1,3]benzothiazol-7-yl)hexahydropyrano[3,4-d]imidazol-2(3H)-one] |  |  |  | 0.1 to 1 µM | 0.1 to 1 µM | < 0.01 µM
17 | O=C1N[C@H]2CCN(C3COC3)C[C@H]2N1c1nc2c3c(ccc2s1)OCCO3 (racemic) [Example 80, rac-(3aR,7aS)-3-(7,8-dihydro[1,4]dioxino[2,3-e][1,3]benzothiazol-2-yl)-5-(oxetan-3-yl)octahydro-2H-imidazo[4,5-c]pyridin-2-one] |  |  |  | ≥ 1 µM | ≥ 1 µM | 0.01 to 0.1 µM
18 | O=C1N[C@H]2CNC[C@H](F)[C@H]2N1c1nc2c3c(ccc2s1)OCC3 [Example 49] |  |  |  | 0.1 to 1 µM | 0.1 to 1 µM | 0.01 to 0.1 µM
19 | CN1CC[C@@H]2NC(=O)N(c3nc4c5c(ccc4s3)OCCO5)[C@@H]2C1 (racemic) [Example 76, rac-(3aR,7aS)-3-(7,8-dihydro[1,4]dioxino[2,3-e][1,3]benzothiazol-2-yl)-5-methyloctahydro-2H-imidazo[4,5-c]pyridin-2-one] |  |  |  | ≥ 1 µM | ≥ 1 µM | 0.01 to 0.1 µM
20 | CN1C[C@@H](F)[C@@H]2NC(=O)N(c3nc4c5c(ccc4s3)OCC5)[C@@H]2C1 [Example 75] |  |  |  | ≥ 1 µM | ≥ 1 µM | 0.01 to 0.1 µM
21 | CN1CCC[C@@H]2[C@H](C1)NC(=O)N2c1nc2c3c(ccc2s1)OCC3 [Example 18] |  |  |  | 0.1 to 1 µM | 0.1 to 1 µM | 0.01 to 0.1 µM
22 | O=C1NC2CCNCC2N1c1nc2c3c(ccc2s1)OCO3 (stereo not drawn) [Example 30] |  |  |  | ≥ 1 µM | ≥ 1 µM | 0.01 to 0.1 µM
23 | CN1CC(N2CC[C@@H]3NC(=O)N(c4nc5c6c(ccc5s4)OCC6)[C@@H]3C2)C1 [Example 83] |  |  |  | 0.1 to 1 µM | ≥ 1 µM | 0.1 to 1 µM
24 | C#C[C@H]1C[C@@H]2[C@H](CO1)NC(=O)N2c1nc2c3c(ccc2s1)OCC3 [Example 149, (3aR,6R,7aR)-1-(7,8-dihydrofuro[3,2-e][1,3]benzothiazol-2-yl)-6-ethynylhexahydropyrano[3,4-d]imidazol-2(3H)-one] |  |  |  | 0.1 to 1 µM | ≥ 1 µM | < 0.01 µM
25 | C[C@H]1C[C@@H]2[C@H](CN1C)NC(=O)N2c1nc2c3c(ccc2s1)OCC3 [Example 93, (3aS,6S,7aR)-1-(7,8-dihydrofuro[3,2-e][1,3]benzothiazol-2-yl)-5,6-dimethyloctahydro-2H-imidazo[4,5-c]pyridin-2-one] | 0.1 to 1 µM | ≥ 1 µM | 0.01 to 0.1 µM |  |  | 
